Test results: ChEMBL document CHEMBL1128647, “Novel open-ring analogues of N5,N10-methylenetetrahydrofolic acid with selective activity against brain tumor” (1995)

Assays:
Format in all cases: functional
Renal cancer cell line = experiment: Cytotoxic activity against human renal cancer cell line
Colon cancer cell line = experiment: Cytotoxic activity against human colon cancer cell line
Lung cancer cell line = experiment: Cytotoxic activity against human lung cancer cell line
Breast cancer cell line = experiment: Cytotoxic activity against human breast cancer cell line
Prostatic carcinoma cell = experiment: Cytotoxic activity against human prostate cancer cell line
SNB-75 = experiment: Cytotoxic activity against human CNS SNB-75 cancer cell line
Ovarian cancer cell line = experiment: Cytotoxic activity against human ovarian cancer cell line
U-251 = experiment: Cytotoxic activity against human CNS U251 cancer cell line

| Structure (SMILES) | GI50 (Renal cancer cell line) | GI50 (Colon cancer cell line) | GI50 (Lung cancer cell line) | GI50 (Breast cancer cell line) | GI50 (Prostatic carcinoma cell) | GI50 (SNB-75) | GI50 (Ovarian cancer cell line) | GI50 (U-251) |
| --- | --- | --- | --- | --- | --- | --- | --- | --- |
| Cc1nc(N)nc(O)c1N1CCN(c2ccc([N+](=O)[O-])cc2)CC1 | > 100 µM | > 100 µM | > 100 µM | > 100 µM | > 100 µM | < 0.01 µM | > 100 µM |  |
| Cc1nc(N)nc(O)c1N1CCN(c2ccc(C(=O)NC(CCC(=O)O)C(=O)O)cc2)CC1 (centres undefined) | > 0.0001 µM | > 100 µM | > 100 µM | > 100 µM | > 100 µM | < 0.01 µM | > 100 µM |  |
| Cc1nc(N)nc(O)c1N1CCN(c2ccc(S(N)(=O)=O)cc2)CC1 | > 100 µM | > 100 µM | > 0.0001 µM | > 100 µM | > 100 µM | 0.1 µM | > 100 µM |  |
| Cc1nc(N)nc(O)c1N1CCN(c2ccc(S(=O)(=O)N(Cc3ccccc3)Cc3ccccc3)cc2)CC1 | 3.1 µM | 55 µM | 4.8 µM | 2.1 µM | 1.9 µM |  | 0.7 µM | 3.68 µM |
| CCOC(=O)CCC(NC(=O)c1ccc(N2CCN(c3c(C)nc(N)nc3O)CC2)cc1)C(=O)OCC (centres undefined) | > 100 µM | > 100 µM | > 100 µM | > 100 µM | > 100 µM | < 0.01 µM | > 0.0001 µM |  |
| Cc1nc(N)nc(O)c1N1CCN(c2ccc(C#N)cc2)CC1 | > 100 µM | > 0.0001 µM | > 100 µM | > 0.0001 µM | > 0.0001 µM | 0.04 µM | 93 µM |  |
| Cc1nc(N)nc(O)c1N1CCN(c2ccc(C(=O)O)cc2)CC1 | 1.39 µM | > 100 µM | > 100 µM | > 100 µM | > 100 µM | > 100 µM | > 100 µM |  |
